Laboratory results published in BindingDB's records for doi:10.1021/jm021114j (Cardiff University, 2003).

Target: Sterol 24-C-methyltransferase (Leishmania major)
Experiment: In vitro inhibitory concentration against Leishmania major Sterol 24-C-methyltransferase (24-SMT)

Row | IC50 [µM] | Compound
1 | 12.2 | CC(O)(C1CCCCN1)[C@H]1CC[C@H]2[C@@H]3CCC4C[C@@H](O[Si](C)(C)C(C)(C)C)CC[C@]4(C)[C@H]3CC[C@]12C (stereo not given in full)
2 | 8 | CC(O)(C1CCCNC1)[C@H]1CCC2C3CCC4C[C@@H](O[Si](C)(C)C(C)(C)C)CC[C@]4(C)C3CC[C@@]21C (stereo partly drawn) [1-[(3S,10S,13S,17S)-3-(tert-Butyl-dimethyl-silanyloxy)-10,13-dimethyl-hexadecahydro-cyclopenta[a]phenanthren-17-yl]-1-piperidin-3-yl-ethanol]
3 | 12.9 | CCC(=O)N1CCCCC1C(C)(O)[C@H]1CCC2C3CCC4C[C@@H](O)CC[C@]4(C)C3CC[C@@]21C (stereo partly drawn) [1-{2-[1-Hydroxy-1-((3S,10S,13S,17S)-3-hydroxy-10,13-dimethyl-hexadecahydro-cyclopenta[a]phenanthren-17-yl)-ethyl]-piperidin-1-yl}-propan-1-one]
4 | 0.1 | CC(O)(C1CCCNC1)[C@H]1CCC2C3CCC4C[C@@H](O)CC[C@]4(C)C3CC[C@@]21C (stereo partly drawn) [(3S,10S,13S,17S)-17-(1-Hydroxy-1-piperidin-3-yl-ethyl)-10,13-dimethyl-hexadecahydro-cyclopenta[a]phenanthren-3-ol]
5 | 38.5 | CC(O)(c1cccnc1)[C@H]1CCC2C3CCC4C[C@@H](O)CC[C@]4(C)C3CC[C@@]21C (stereo partly drawn) [(3S,10S,13S,17S)-17-(1-Hydroxy-1-pyridin-3-yl-ethyl)-10,13-dimethyl-hexadecahydro-cyclopenta[a]phenanthren-3-ol]
